Source: the supplement of paper PMC10307832

Compound: CC(C)C[C@@H](C(=O)N[C@H](C(=O)OC1CCCC1)c1ccccc1)[C@H](O)C(=O)NO [Tosedostat] + C[C@]1(O)C[C@@H](c2nc(-c3ccc4ccc(-c5ccccc5)nc4c3)c3c(N)nccn32)C1 [Linsitinib] (partner 1 µM)
Assay: relative viability (nuclei count vs DMSO), 5 days (fraction); higher = more cells survive
Conditions: first compound 2 µM
Procedure, shortened: (§1)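 Relative viability divides the nuclei count in treated wells by that in vehicle wells. Lung cancer cell lines were seeded in 1536-well plates, dosed by pin tool the next day, and fixed and stained after 5 days in one step with final 0.05% Triton X-100, 1% formaldehyde and 1 ug/ml Hoechst. Dosing was a single drug or a fixed anchor-drug dose plus five library-drug doses (not always all listed) in √10 steps, and values are medians of duplicate plates imaged at 4×.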

Row | Cell Line | relative viability
1 | BEN | 1.06
2 | HARA | 0.857
3 | HCC-78 | 0.573
4 | NCI-H647 | 1.24
5 | LCLC-97TM1 | 0.167
6 | NCI-H2126 | 0.623
7 | A-427 | 1.09
8 | NCI-H650 | 0.494
9 | RERF-LC-KJ | 0.795
10 | NCI-H1915 | 0.961
11 | NCI-H661 | 0.495
12 | NCI-H1975 | 0.769
13 | 201T | 1.17
14 | NCI-H2023 | 0.587
15 | HCC-827 | 0.909
16 | NCI-H322M | 0.839
17 | NCI-H1437 | 0.66
18 | PC-14 | 0.918
19 | CAL-12T | 0.642
20 | NCI-H1734 | 0.827
21 | EPLC-272H | 0.712
22 | NCI-H3122 | 1.04
23 | NCI-H2009 | 1.02
24 | NCI-H1563 | 1.4
25 | NCI-H520 | 1.06
26 | NCI-H1651 | 0.863
27 | NCI-H1993 | 0.629

Compound: CC1=NN=C(O1)C2=NN=C(C=C2)N3CCC(CC3)OC4=C(C=CC(=C4)F)Cl + COc1cccc2cc(-c3nc([C@H]4CC[C@H](C(=O)O)CC4)n4ncnc(N)c34)[nH]c12 [OSI-027] (partner 0.5 µM)
Assay: as above
Conditions: first compound 0.253 µM
Procedure, shortened: as §1

Row | Cell Line | relative viability
28 | COR-L23 | 0.654
29 | COR-L 105 | 0.702
30 | LU99A | 0.274
31 | NCI-H460 | 0.319
32 | HOP-62 | 0.762
33 | HCC-44 | 0.391
34 | LXF-289 | 0.76
35 | BEN | 0.309
36 | HARA | 0.404
37 | HCC-78 | 0.414
38 | NCI-H647 | 0.516
39 | LCLC-97TM1 | 0.523
40 | NCI-H2126 | 0.626
41 | A-427 | 0.498
42 | NCI-H650 | 0.553
43 | RERF-LC-KJ | 0.524
44 | NCI-H1915 | 0.596

Row | Cell Line | relative viability
45 | NCI-H661 | 0.633
46 | 201T | 0.383
47 | NCI-H2023 | 0.33
48 | HCC-827 | 0.602
49 | NCI-H322M | 0.513
50 | NCI-H1437 | 0.697
51 | PC-14 | 0.818
52 | CAL-12T | 0.54
53 | NCI-H1734 | 0.647
54 | EPLC-272H | 0.283
55 | NCI-H3122 | 0.359
56 | NCI-H2009 | 0.673
57 | NCI-H1563 | 0.772
58 | NCI-H520 | 0.336
59 | NCI-H1651 | 0.73
60 | NCI-H1993 | 0.457

Same assay, conditions: first compound 0.8 µM

Row | Cell Line | relative viability
61 | COR-L23 | 0.558
62 | COR-L 105 | 0.687
63 | LU99A | 0.298
64 | NCI-H460 | 0.302
65 | HOP-62 | 0.579
66 | HCC-44 | 0.53
67 | LXF-289 | 0.548
68 | BEN | 0.28
69 | HARA | 0.206
70 | HCC-78 | 0.369
71 | NCI-H647 | 0.423
72 | LCLC-97TM1 | 0.391
73 | NCI-H2126 | 0.589
74 | NCI-H650 | 0.447
75 | RERF-LC-KJ | 0.531
76 | NCI-H1915 | 0.349

Row | Cell Line | relative viability
77 | NCI-H661 | 0.588
78 | NCI-H1975 | 0.529
79 | 201T | 0.536
80 | NCI-H2023 | 0.35
81 | HCC-827 | 0.362
82 | NCI-H322M | 0.492
83 | NCI-H1437 | 0.742
84 | PC-14 | 0.572
85 | CAL-12T | 0.705
86 | NCI-H1734 | 0.446
87 | EPLC-272H | 0.248
88 | NCI-H3122 | 0.384
89 | NCI-H2009 | 0.618
90 | NCI-H1563 | 0.854
91 | NCI-H1651 | 0.597
92 | NCI-H1993 | 0.552

Same assay, conditions: first compound 2.53 µM

Row | Cell Line | relative viability
93 | COR-L23 | 0.586
94 | COR-L 105 | 0.908
95 | LU99A | 0.307
96 | NCI-H460 | 0.137
97 | HOP-62 | 0.771
98 | HCC-44 | 0.344
99 | LXF-289 | 0.741
100 | BEN | 0.309
101 | HARA | 0.359
102 | HCC-78 | 0.348
103 | NCI-H647 | 0.453
104 | LCLC-97TM1 | 0.472
105 | NCI-H2126 | 0.756
106 | A-427 | 0.428
107 | NCI-H650 | 0.528
108 | RERF-LC-KJ | 0.622
109 | NCI-H1915 | 0.553

Row | Cell Line | relative viability
110 | NCI-H661 | 0.528
111 | NCI-H1975 | 0.754
112 | 201T | 0.583
113 | NCI-H2023 | 0.35
114 | HCC-827 | 0.653
115 | NCI-H322M | 0.636
116 | NCI-H1437 | 0.795
117 | PC-14 | 0.721
118 | CAL-12T | 0.668
119 | NCI-H1734 | 0.599
120 | EPLC-272H | 0.26
121 | NCI-H3122 | 0.418
122 | NCI-H2009 | 0.605
123 | NCI-H1563 | 0.77
124 | NCI-H520 | 0.337
125 | NCI-H1651 | 0.717
126 | NCI-H1993 | 0.523

Same assay, conditions: first compound 8 µM

Row | Cell Line | relative viability
127 | COR-L23 | 0.389
128 | COR-L 105 | 0.769
129 | LU99A | 0.287
130 | NCI-H460 | 0.0418
131 | HOP-62 | 0.555
132 | HCC-44 | 0.389
133 | LXF-289 | 0.687
134 | BEN | 0.318
135 | HARA | 0.348
136 | HCC-78 | 0.335
137 | NCI-H647 | 0.207
138 | LCLC-97TM1 | 0.508
139 | NCI-H2126 | 0.661
140 | A-427 | 0.404
141 | NCI-H650 | 0.437
142 | RERF-LC-KJ | 0.479
143 | NCI-H1915 | 0.421

Row | Cell Line | relative viability
144 | NCI-H661 | 0.484
145 | NCI-H1975 | 0.695
146 | 201T | 0.504
147 | NCI-H2023 | 0.314
148 | HCC-827 | 0.591
149 | NCI-H322M | 0.516
150 | NCI-H1437 | 0.614
151 | PC-14 | 0.643
152 | CAL-12T | 0.513
153 | NCI-H1734 | 0.524
154 | EPLC-272H | 0.298
155 | NCI-H3122 | 0.348
156 | NCI-H2009 | 0.564
157 | NCI-H1563 | 0.834
158 | NCI-H520 | 0.244
159 | NCI-H1651 | 0.697
160 | NCI-H1993 | 0.581
